# Results taken from a melting point compilation (Tetko et al.; mined from patent text by program, amines drawn as free bases though some values may be those of a salt).
row,Structure (SMILES),melting point [°C]
1,COc1ccc(COc2cccc(C=C(C=O)C(C=O)=Cc3cccc(OCc4ccc(OC)cc4)c3)c2)cc1,117 to 119
2,O=C(O)C1Cc2cc3c(-c4ccc(F)cc4)noc3c(Cl)c2O1 (stereo not drawn),225 to 226
3,CCOC(=O)NC(C(=O)OC)=C1CN=C(c2ccccc2F)c2cc(Cl)ccc2N1,188 to 191
4,CCCCOc1cc(CCCC(=O)O)n(Cc2ccc(Cl)cc2Cl)n1,60.5 to 61
5,CCc1noc(=O)n1C(=O)NC,82
6,COc1ccc(C2CC(=O)OC(=O)C2)cc1OC,118 to 120
7,CSc1cnc(Cl)c(Cl)c1,66 to 67
8,O=C(O)c1cc(O)c2c3c(cc(Br)c2n1)S(=O)c1ccccc1-3 (stereo not drawn),289 to 290
9,CCCC1CCC(c2cc3c4c(c(F)c(F)c3o2)OCCC4)CC1 (stereo not drawn),89
10,CC(=O)NC1CCN(c2c(F)cc3c(=O)c(C(=O)O)cn4c3c2CCC4C)CC1 (stereo not drawn),274 to 277
11,CCOC(=O)c1sc2cc(Cn3ccnc3)ccc2c1Cl,127 to 129
12,O=C1CC(c2ccc(F)cc2)Cc2occ(C(F)(F)F)c21 (stereo not drawn),105 to 106
13,CCCCn1c(=O)c2c(ncn2S(C)(=O)=O)n(CCCC)c1=O,98 to 100
14,COCCOC(=O)Cc1cccc(Nc2nccc(-c3sc(N)nc3C)n2)c1,182 to 184
15,CCCCCCCCCCCCCc1cc(C(=O)OCCBr)c[nH]1,67 to 69.5
16,Cc1cn(CCCN2C(=O)c3ccc(Cl)c(Cl)c3C2=O)cn1,147 to 151
17,Cn1ncc2[nH]c3ccc(Cc4cccc(C(=O)O)c4)cc3c(=O)c21,> 300
18,O=C1CCC(N2C(=O)c3ccc(CNC(=O)Nc4ccccc4)cc3C2=O)C(=O)N1 (stereo not drawn),288 to 290
19,ClC1(Cl)C(c2ccccc2)C1(c1ccccc1)c1ccccc1 (stereo not drawn),106 to 107
20,CN1C(=O)CCc2cc(N3C[C@H](C(N)=O)OC3=O)cc(F)c21,260 to 262
21,C#CCOc1cccc(-c2nc3ncccc3[nH]2)c1OC,262
22,COc1ccc(CN2C(=O)CC2C(=O)O)c(OC)c1 (stereo not drawn),124 to 125
23,CNC1=NS(=O)(=O)N=C1NCCSCc1csc(N)n1,200 to 201
24,CC(C)CC1(C(CCN2C(=O)c3ccc4c(ccc5ccccc54)c3C2=O)C(=O)NO)CCN(CCc2ccccc2)C1=O (stereo not drawn),203 to 205
25,COc1ccc2cc(CCc3ccc(OCC(O)CNC(C)C)c(OC)c3)n(C)c(=O)c2c1 (stereo not drawn),162 to 164

row,Structure (SMILES),melting point [°C]
1,Cn1cnc2c1c1nnc(-c3ccccc3)n1c(=O)n2Cc1ccccc1,255 to 257
2,O=C(O)Cn1cc(C(=O)c2ccn3c2CSC3c2cccnc2)c2ccc(-c3ccc(F)cc3)cc21 (stereo not drawn),240 to 249
3,Nc1cc(NCCC2CCCCC2)nc2c1ncn2C1OC(CO)C(O)C1O (stereo not drawn),194 to 195
4,CCOC(=O)C1=C(C(C)C)Nc2n[nH]cc2C1c1ccccc1Cl (stereo not drawn),211 to 213
5,CC(=O)SCCC(=O)N1[C@@H](c2ccccc2O)SC[C@H]1C(=O)N(c1ccccc1)[C@@H](C)C(=O)OC(C)(C)C,140 to 142
6,C[C@H](C#Cc1cc(Cc2ccc(F)cc2)cs1)N(O)C(N)=O,105 to 108
7,CN(C)CCc1c(CSc2ccccc2)c2ccccc2n1C,58 to 60
8,CC(O)c1cc2c(o1)C(=O)c1cccc(O)c1C2=O (stereo not drawn),148 to 149
9,CCc1nc2c(N)nc3ccccc3c2n1CCCS(C)(=O)=O,> 250
10,CCOC(=O)c1cc(Cl)c(N)c2c1OCCO2,105 to 106
11,N#Cc1c(O)csc1N,300
12,O=C(Oc1cc(F)ccc1Br)c1cc2ccccc2oc1=O,173 to 175
13,COc1c(C2=NC(C)(C)CO2)ccc(C2=NC(C)(C)CO2)c1OC,84.5 to 85.5
14,CCCCn1c(=O)[nH]c2cccnc2c1=O,200 to 210
15,CN(C)Cc1cc(C(=O)c2ccc(Cl)s2)cc(C(C)(C)C)c1O,137 to 138
16,C(=C\c1cc(/C=C/c2ccccc2OCc2ccccn2)[nH]n1)/c1ccc2[nH]ccc2c1,220 to 223
17,CC(=O)OCC1OC(n2cc(C3=C(c4c[nH]c5ncccc45)C(=O)N(COCc4ccccc4)C3=O)c3ccccc32)C(OC(C)=O)C(OC(C)=O)C1OC(C)=O (stereo not drawn),115 to 117
18,CC(C)N(C(=O)n1oc(=O)n(C)c1=O)c1ccc(F)cc1,135 to 136
19,O=C(Nc1nc(NC(=O)c2cccnc2)nc(NC(=O)c2cccnc2)n1)c1cccnc1,276 to 278
20,N#Cc1cnc2cc3ccccc3cc2c1Nc1ccc(Oc2ccccc2)cc1,250 to 251
21,CCC(CC)c1ccc(Cl)c2nc3n(c12)CC(C)N3c1cnc(N(C)C)cc1C (stereo not drawn),204 to 206
22,CC(C)(C)c1cc(I)c2c(c1)CNS(=O)(=O)O2,154 to 155
23,Cc1ccccc1-c1cccc(C(=O)O)c1,127
24,OCc1cnc(-c2ccc(Cl)cc2)o1,115 to 116
25,Cc1ccc(CSc2ccc(Cl)cc2)cc1,72 to 73

row,Structure (SMILES),melting point [°C]
1,c1ccc(-c2ccc3c(ccc4c5ccccc5[nH]c34)c2)cc1,254
2,Cc1ccc(Oc2cccc(NC(=O)c3ccn4c3CSC4c3cccnc3)c2)cc1 (stereo not drawn),110
3,Cc1ncn(-c2nccc3[nH]c(=O)ccc23)c1C,256 to 258
4,O=C1c2cccc3c2N(CC3)c2ccccc2N1CC#CCN1CCCC1,80 to 81
5,NOCc1ccc2c(c1)-c1n[nH]c(=O)c3cccc(c13)O2,294 to 296
6,Cc1nc2ccc(Sc3cccc4cnccc34)cc2o1,140 to 142
7,O=[N+]([O-])c1ccc(Cl)cc1NCC1CCCCC1,73
8,N#Cc1cccc(CN2CCN(c3ccc(NC(=O)c4ccccc4OCc4ccc(C(F)(F)F)cc4)cc3)CC2)c1,190 to 191
9,CCCC1=C(C(=O)OCC)C(c2cccc([N+](=O)[O-])c2)C(C(=O)OCC)=C(C)N1COCC (stereo not drawn),97
10,COc1cc2c(cc1OC)C(C)Cn1c-2cc(=Nc2c(C)cc(C)cc2C)n(C)c1=O (stereo not drawn),156 to 157
11,CNC(=C(Br)C#N)c1ccc(Cl)cc1,178
12,CCOC(=O)NCCc1ccccc1,47 to 48
13,CCOC(=Cc1ccc(-c2cccc(N(C)C(=O)Nc3ccc(C)cc3)c2)cc1)C(=O)O,92
14,FC(F)(F)c1ccc2c(Cl)nccc2n1,90
15,NC(=O)Cc1cn(-c2ccccc2)nc1-c1ccc(Cl)cc1,182
16,Cc1c(C)c2c(c(C)c1NC(=O)CC(C)(C)C)C(c1ccccc1)CO2 (stereo not drawn),146 to 147
17,CC(C)OP(=O)(Cc1c(C(C)(C)C)cc(O)cc1C(C)(C)C)OC(C)C,100
18,CCCN1C(=O)C2CC2(c2ccc(N)cc2)C1=O (stereo not drawn),97
19,Cc1ccc2sc3cc(F)ccc3c(=O)c2c1,159 to 165
20,C/C(=C\c1ccc(C(=O)OCCO)cc1)c1ccc2c(c1)C(C)(C)CCC2(C)C,138 to 139
21,Cn1ccc(Nc2n[nH]c3c(OCCc4ccccn4)cc(-c4ncccc4Cl)cc23)n1,89 to 91
22,COC(=O)C(C=CC(=O)O)=CNc1ccc(Cl)cc1,160 to 161
23,CC(C)(C)Nc1c(NCc2ccc(C(F)(F)F)cc2)c(=O)c1=O,306 to 308
